Measured values from US9661848B2, “Substituted 4-cyan-3-(pyridyl)-4-phenylbutanoates, method for the production thereof and uses as herbicides and plant growth regulators” (BAYER CROPSCIENCE AG, priority 2012, dated 2017).

Assays:
Alopecurus myosuroides = test: Herbicidal post-emergence action; type: in vivo; details: post-emergence method; 0.32 kg of active substance per hectare
Description: (§1) Seeds of monocotyledonous and dicotyledonous weeds and crop plants were placed in sandy loam in wood-fibre pots, covered with soil and cultivated in a greenhouse under good growth conditions. 2 to 3 weeks after sowing, the test plants were treated at the one-leaf stage, where the compounds (I) according to the invention, formulated in the form of wettable powders (WP), were applied by spraying as aqueous suspension or emulsion at a water application rate of 600 l/ha (converted) with the addition of 0.2% of wetting agent to the green parts of the plants. After the test plants had been kept in the greenhouse under optimum growth conditions for about 3 weeks, the activity of the preparations was rated visually in comparison to untreated controls in per cent (%). For example, 100% activity=the plants have died, 50% herbicidal activity or damage=the plants have been reduced by 50% or the plant mass has been reduced by 50%, 0% activity=like control plants.

Avena fatua = test: Herbicidal post-emergence action; type: in vivo; details: post-emergence method; 0.32 kg of active substance per hectare
Description: as §1

Question: For `COC(=O)C[C@@H](c1cncc(F)c1)[C@H](C#N)c1cccc(F)c1` [erythro-2-Ibb732], which “activity against Alopecurus myosuroides” value (Alopecurus myosuroides) is on record?
Answer: 90-100%

Question: What about the “activity against Avena fatua” value (Avena fatua) of the same compound?
Answer: 90-100%
